What was measured:
Format in all cases: physicochemical
[1] = Physical stability of encapsulated pharmaceutical formulations (appearance upon storage); settings: both 25° C. and 60% relative humidity, and ambient temperature and relative humidity
Protocol: The physical stability of encapsulated pharmaceutical formulations containing certain salt forms was evaluated by determining any changes in appearance of the pharmaceutical formulation upon storage.
Capsules containing a 1:1 mixture (wt/wt) of the salt form and microcrystalline cellulose (Avecil) were stored under of the following conditions: • (1) Capsules were placed inside an open container within a stability chamber that was previously set to 25° C. and 60% relative humidity; or • (2) Capsules were placed inside an open container on the bench top alongside a thermometer and hygrometer.
At periodic intervals, the appearance of each formulation was compared to its starting appearance and any differences were recorded.

[2] = Chemical stability of salt forms (change in purity by HPLC upon storage); settings: 40° C. and 75% relative humidity, 7 days; for % Change in Impurity A / % Change in Impurity B / % Change in Purity of Salt: HPLC Method D; for % Change in Purity of Salt: heat sealed polyethylene bags
Protocol: The chemical stability of each salt form was evaluated by determining the change in purity of the sample upon storage of the salt form at 40° C.
Prior to storage, each salt form was analyzed by HPLC (Method D) to determine sample purity and in particular, to determine the amount of the following impurities present in the sample: • A. 3-[4-{N-[7-(3-(S)-1-Carbamoyl-1,1-diphenylmethyl)pyrrolidin-1-yl)hept-1-yl]-N-(isopropyl)amino}piperidin-1-ylmethyl]-4-methoxy-1-methylpyridinium Salt (Impurity A); • B. 4-{N-[7-(3-(S)-1-Carbamoyl-1,1-diphenylmethyl)pyrrolidin-1-yl)hept-1-yl]-N-(isopropyl)amino}-1-(4-oxo-1,4-dihydropyrid-3-ylmethyl)piperidine (Impurity B).
Approximately 50-100 mg of the salt form was then placed in two heat sealed low density polyethylene bags. The bags were then placed into a stability chamber that was previously set at 40° C. and 75% relative humidity. After 7 days, the bags were removed and the contents were analyzed by HPLC.

[3] = Physical stability of salt forms (appearance upon storage in open vial); settings: 30° C. and 60% relative humidity, listed as naphthalene-1,5-disulfonic acid salt
Protocol: The physical stability of certain salt forms was evaluated by determining any changes in appearance of the sample upon storage of the salt form at 30° C. and 60% relative humidity.
To an open vial was added 50-100 mg of each salt form. The open vials were placed in a stability chamber that was previously set at 30° C. and 60% relative humidity. At periodic intervals, the appearance of each salt form was compared to its starting appearance and any differences were recorded.

| Compound | Appearance of pharmaceutical formulation upon storage (summary in words of Table III) [1] | Chemical stability (summary in words of Table I) [2] | % Change in Impurity A [2] [%] | % Change in Impurity B [2] [%] | % Change in Purity of Salt [2] [%] | Appearance Day 15 [3] |
| --- | --- | --- | --- | --- | --- | --- |
| COc1ccncc1CN1CCC(N(CCCCCCCN2CC[C@@H](C(C(N)=O)(c3ccccc3)c3ccccc3)C2)C(C)C)CC1.O=S(=O)(O)c1cccc2c(S(=O)(=O)O)cccc12 [Example 7] | remained a free flowing powder | excellent chemical stability | <0.1 | <0.1 | 0.4 | remained a free flowing powder |
| COc1ccncc1CN1CCC(N(CCCCCCCN2CC[C@@H](C(C(N)=O)(c3ccccc3)c3ccccc3)C2)C(C)C)CC1.CS(=O)(=O)O.CS(=O)(=O)O [Example 9] |  |  | <0.1 | <0.1 | 0.9 |  |
| COc1ccncc1CN1CCC(N(CCCCCCCN2CC[C@@H](C(C(N)=O)(c3ccccc3)c3ccccc3)C2)C(C)C)CC1.CS(=O)(=O)O.CS(=O)(=O)O.CS(=O)(=O)O [Example 10] |  |  | 9.41 | 6.59 | 16.4 |  |
| COc1ccncc1CN1CCC(N(CCCCCCCN2CC[C@@H](C(C(N)=O)(c3ccccc3)c3ccccc3)C2)C(C)C)CC1.O=S(=O)(O)O [Example 11A] |  |  | <0.1 | 0.11 | 0.8 |  |
| COc1ccncc1CN1CCC(N(CCCCCCCN2CC[C@@H](C(C(N)=O)(c3ccccc3)c3ccccc3)C2)C(C)C)CC1.O=C(O)C(O)C(O)C(=O)O [Example 11B] | formed a non-flowing granular cake |  | 0.26 | 0.35 | 0.8 |  |
| COc1ccncc1CN1CCC(N(CCCCCCCN2CC[C@@H](C(C(N)=O)(c3ccccc3)c3ccccc3)C2)C(C)C)CC1.O=C(O)c1cc(=O)[nH]c(=O)[nH]1.O=C(O)c1cc(=O)[nH]c(=O)[nH]1 [Example 11C] |  |  | 0.45 | 0.49 | 1.1 |  |
| COc1ccncc1CN1CCC(N(CCCCCCCN2CC[C@@H](C(C(N)=O)(c3ccccc3)c3ccccc3)C2)C(C)C)CC1.O=C(O)c1ccccc1O.O=C(O)c1ccccc1O [Example 11D] |  |  | 0.17 | 0.19 | 0.7 |  |
| COc1ccncc1CN1CCC(N(CCCCCCCN2CC[C@@H](C(C(N)=O)(c3ccccc3)c3ccccc3)C2)C(C)C)CC1.O=C(O)c1ccccc1O.O=C(O)c1ccccc1O.O=C(O)c1ccccc1O [Example 11E] |  |  | 1.22 | 1.06 | 2.7 |  |
| COc1ccncc1CN1CCC(N(CCCCCCCN2CC[C@@H](C(C(N)=O)(c3ccccc3)c3ccccc3)C2)C(C)C)CC1.O=C(O)c1cc(O)ccc1O.O=C(O)c1cc(O)ccc1O [Example 11F] |  |  | 0.21 | 0.23 | 0.4 |  |
| COc1ccncc1CN1CCC(N(CCCCCCCN2CC[C@@H](C(C(N)=O)(c3ccccc3)c3ccccc3)C2)C(C)C)CC1.Cl.Cl [Example 11G] |  |  | 1.16 | 0.79 | 3.6 |  |

— patent US20050113413A1, “Naphthalene-1,5-disulfonic acid salts of a substituted 4-amino-1-(pyridylmethyl)piperidine compound” (priority 2003, published 2005)
